{"source": "paper PMC3304435", "about": "(Biochemistry, 2012)", "target": "Escherichia coli RtcB ligase (Escherichia coli, UniProt P46850)", "sequence (P46850 whole entry)": "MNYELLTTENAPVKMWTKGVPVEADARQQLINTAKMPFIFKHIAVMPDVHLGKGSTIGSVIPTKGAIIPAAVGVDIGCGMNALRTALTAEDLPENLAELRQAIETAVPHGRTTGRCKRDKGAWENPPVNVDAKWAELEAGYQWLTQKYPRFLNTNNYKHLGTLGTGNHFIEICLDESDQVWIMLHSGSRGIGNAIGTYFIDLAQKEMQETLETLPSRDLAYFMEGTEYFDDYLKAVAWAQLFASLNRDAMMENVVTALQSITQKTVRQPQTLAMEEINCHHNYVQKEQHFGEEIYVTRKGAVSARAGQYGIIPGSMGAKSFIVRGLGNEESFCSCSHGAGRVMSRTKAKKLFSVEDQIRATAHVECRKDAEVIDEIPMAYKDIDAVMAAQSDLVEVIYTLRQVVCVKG", "format": "biochemical", "settings": "Mn2+; 3′-P / 5′-OH tRNA-mimic RNA substrate; estimated upper limit"}
{"smiles": "Nc1nc2c(ncn2[C@@H]2O[C@H](COP(=O)(O)OP(=O)(O)OP(=O)(O)O)[C@@H](O)[C@H]2O)c(=O)[nH]1", "note": "[GTP]", "values": [{"measurement": "Km", "result": "< 16", "unit": "µM"}]}
